{"source": "patent US5426106A", "about": "“Pyrrolo-pyridazinone derivatives” (Merck Sharp & Dohme Limited, priority 1992, dated 1995)", "key": {"[1]": {"molecular_target": "T1, strychnine-insensitive site present on the NMDA receptor (Rattus norvegicus, UniProt P35439)", "T1 construct": "NMDA receptor of rat forebrain membranes; from tissue; host or cells: rat forebrain membranes", "experiment": "Displacement of 3H-L-689,560 binding to the strychnine-insensitive site of rat forebrain membranes", "conditions": "3H-L-689,560, rat forebrain membranes; read-out: concentration required to displace 50% of the specific binding (IC50)", "source_text": "(§1) The compounds useful in this invention potently and selectively block responses to NMDA and/or AMPA in a brain slice from rat cortex, and inhibit the binding of agonists and antagonists to the strychnine-insensitive site present on the NMDA receptor and/or AMPA binding to rat forebrain membranes.\nThe ability of test compounds to displace ^3 H-L-689,560 (trans-2-carboxy-5,7-dichloro-4-phenylaminocarbonylamino-1,2,3,4-tetrahydroquinoline) binding to the strychnine-insensitive site present on the NMDA receptor of rat forebrain membranes can be determined by the method of Grimwood et al., Proceedings of The British Pharmacological Society, July 1991, Abstract C78."}, "[2]": {"system": "NMDA receptors", "experiment": "Cortical slice studies, responses to NMDA in rat cortical slice", "type": "cell-based", "conditions": "from righthand shift in NMDA concentration-response curves, read-out: apparent equilibrium constant (Kb) in response to NMDA", "source_text": "as §1\nThe effects of compounds of the invention on responses to NMDA and AMPA can be assessed using the rat cortical slice as described by Wong et al., Proc. Natl. Acad. Sci. USA, 1986, 83, 7104. The apparent equilibrium constant (Kb) is calculated from the righthand shift in the NMDA or AMPA concentration-response curves produced by the compound under test."}}}
{"compound": "O=c1[nH]n2cccc2c(O)c1-c1ccccc1", "note": "[Example 1, 4-Hydroxy-3-phenylpyrrolo[1,2-b]pyridazin-2(1H)-one]", "values": [{"measurement": "IC50", "setting": "[1]", "result": "< 50", "unit": "µM"}, {"measurement": "Kb", "setting": "[2]", "result": "< 150", "unit": "µM"}]}
